Test results published in patent US11820773B2, “Tricyclic compounds” (ALIGOS THERAPEUTICS, INC., priority 2020, dated 2023).

Test system: HBV
Assay: HBV-DNA antiviral assay using HepG2.117 cells (intracellular HBV DNA by qPCR)
Format: cell-based, genotype D HBV
Settings: HBV DNA inhibition, 3 days incubation, 2% DMSO
In short: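 Endpoints are intracellular HBV DNA by qPCR (interpolated from a gBlock standard curve) and ATP-based viability in duplicate plates. Doxycycline-free HepG2.117 Tet-off cells received compounds (9 concentrations, 4-fold steps, 2% DMSO) for 3 days. Inhibition normalised to DMSO wells; EC50/EC90/CC50 by curve fitting.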

`Cn1cnnc1-c1ccc(-n2c(=O)c3c(n4ncc(Cc5ccccc5)c24)CN(C(=O)c2ccc(Br)c(Cl)c2)CC3)cc1` [Compound 9, 5-benzyl-12-(4-bromo-3-chloro-benzoyl)-7-[4-(4-methyl-1,2,4-triazol-3-yl)phenyl]-2,3,7,12-tetrazatricyclo[7.4.0.0^2,6]trideca-1(9),3,5-trien-8-one] and `Cn1nnc(-c2ccc(-n3c(=O)c4c(n5ncc(Cc6ccccc6)c35)CN(C(=O)c3ccc(Br)c(Cl)c3)CC4)cc2)n1` [Compound 10, 5-benzyl-12-(4-bromo-3-chloro-benzoyl)-7-[4-(2-methyltetrazol-5-yl)phenyl]-2,3,7,12-tetrazatricyclo[7.4.0.0^2,6]trideca-1(9),3,5-trien-8-one] cannot be ordered by EC50: under 50 nM for the first, under 50 nM for the second.

`CNC(=O)c1ccc(-n2c(=O)c3c(n4ncc(CC5CCCC5)c24)CN(C(=O)c2ccc(Br)c(Cl)c2)CC3)cc1` [Compound 11, 4-[12-(4-bromo-3-chloro-benzoyl)-5-(cyclopentylmethyl)-8-oxo-2,3,7,12-tetrazatricyclo[7.4.0.0^2,6]trideca-1(9),3,5-trien-7-yl]-N-methyl-benzamide] and `Cc1nn[nH]c1-c1ccc(-n2c(=O)c3c(n4ncc(Cc5ccccc5)c24)CN(C(=O)c2ccc(Br)c(C(F)(F)F)c2)CC3)cc1` [Compound 35, 5-benzyl-12-[4-bromo-3-(trifluoromethyl)benzoyl]-7-[4-(4-methyl-1H-triazol-5-yl)phenyl]-2,3,7,12-tetrazatricyclo[7.4.0.0^2,6]trideca-1(9),3,5-trien-8-one] cannot be ordered by EC50: under 50 nM for the first, under 50 nM for the second.

Same assay, conditions: Hepatitis B virus, 72 h, HBV DNA inhibition, 3 days incubation, 2% DMSO

Compared with `Cc1ccnn1-c1ccc(-n2c(=O)c3c(n4ncc(Cc5ccccc5)c24)CN(C(=O)c2ccc(Br)c(Cl)c2)CC3)cc1` [Compound 12, 5-benzyl-12-(4-bromo-3-chloro-benzoyl)-7-[4-(5-methylpyrazol-1-yl)phenyl]-2,3,7,12-tetrazatricyclo[7.4.0.0^2,6]trideca-1(9),3,5-trien-8-one], `O=C(c1ccc(Br)c(Cl)c1)N1CCc2c(n3ncc(Cc4ccccc4)c3n(-c3ccc(-n4ccc(C(F)(F)F)n4)cc3)c2=O)C1` [Compound 13, 5-benzyl-12-(4-bromo-3-chloro-benzoyl)-7-[4-[3-(trifluoromethyl)pyrazol-1-yl]phenyl]-2,3,7,12-tetrazatricyclo[7.4.0.0^2,6]trideca-1(9),3,5-trien-8-one] is higher in EC50: under 50 nM for the first, 50 to 500 nM for the second.

`CNC(=O)c1ccc(-n2c(=O)c3c(n4ncc(CC5CCC5)c24)CN(C(=O)c2ccc(Br)c(Cl)c2)CC3)cc1` [Compound 14, 4-[12-(4-bromo-3-chloro-benzoyl)-5-(cyclobutylmethyl)-8-oxo-2,3,7,12-tetrazatricyclo[7.4.0.0^2,6]trideca-1(9),3,5-trien-7-yl]-N-methyl-benzamide] and `CNC(=O)c1ccc(-n2c(=O)c3c(n4ncc(CC5CCOC5)c24)CN(C(=O)c2ccc(Br)c(Cl)c2)CC3)cc1` (stereo not shown) [Compound 17, 4-[12-(4-bromo-3-chloro-benzoyl)-8-oxo-5-(tetrahydrofuran-3-ylmethyl)-2,3,7,12-tetrazatricyclo[7.4.0.0^2,6]trideca-1(9),3,5-trien-7-yl]-N-methyl-benzamide] cannot be ordered by EC50: under 50 nM for the first, under 50 nM for the second.

`CN1Cc2cc(-n3c(=O)c4c(n5ncc(Cc6ccccc6)c35)CN(C(=O)c3ccc(Br)c(Cl)c3)CC4)ccc2C1=O` [Compound 15, 5-benzyl-12-(4-bromo-3-chloro-benzoyl)-7-(2-methyl-1-oxo-isoindolin-5-yl)-2,3,7,12-tetrazatricyclo[7.4.0.0^2,6]trideca-1(9),3,5-trien-8-one] and `CNc1nnc2cc(-n3c(=O)c4c(n5ncc(Cc6ccccc6)c35)CN(C(=O)c3ccc(Br)c(Cl)c3)CC4)ccn12` [Compound 23, 5-benzyl-12-(4-bromo-3-chloro-benzoyl)-7-[3-(methylamino)-[1,2,4]triazolo[4,3-a]pyridin-7-yl]-2,3,7,12-tetrazatricyclo[7.4.0.0^2,6]trideca-1(9),3,5-trien-8-one] cannot be ordered by EC50: under 50 nM for the first, under 50 nM for the second.

`CNC(=O)c1ccc(-n2c(=O)c3c(n4ncc(CC5CCC5)c24)CN(C(=O)c2ccc(Br)c(C(F)(F)F)c2)CC3)cc1` [Compound 16, 4-[12-[4-bromo-3-(trifluoromethyl)benzoyl]-5-(cyclobutylmethyl)-8-oxo-2,3,7,12-tetrazatricyclo[7.4.0.0^2,6]trideca-1(9),3,5-trien-7-yl]-N-methyl-benzamide] and `CNC(=O)c1ccc(-n2c(=O)c3c(n4ncc(CC5CC5)c24)CN(C(=O)c2ccc(Br)c(C(F)(F)F)c2)CC3)cc1` [Compound 24, 4-[12-[4-bromo-3-(trifluoromethyl)benzoyl]-5-(cyclopropylmethyl)-8-oxo-2,3,7,12-tetrazatricyclo[7.4.0.0^2,6]trideca-1(9),3,5-trien-7-yl]-N-methyl-benzamide] cannot be ordered by EC50: under 50 nM for the first, under 50 nM for the second.

`CNC(=O)c1ccc(-n2c(=O)c3c(n4ncc(Cc5ccsc5)c24)CN(C(=O)c2ccc(Br)c(Cl)c2)CC3)cc1` [Compound 18, 4-[12-(4-bromo-3-chloro-benzoyl)-8-oxo-5-(3-thienylmethyl)-2,3,7,12-tetrazatricyclo[7.4.0.0^2,6]trideca-1(9),3,5-trien-7-yl]-N-methyl-benzamide] and `CNC(=O)c1ccc(-n2c(=O)c3c(n4ncc(Cc5ccsc5)c24)CN(C(=O)c2ccc(Br)c(C(F)(F)F)c2)CC3)cc1` [Compound 20, 4-[12-[4-bromo-3-(trifluoromethyl)benzoyl]-8-oxo-5-(3-thienylmethyl)-2,3,7,12-tetrazatricyclo[7.4.0.0^2,6]trideca-1(9),3,5-trien-7-yl]-N-methyl-benzamide] cannot be ordered by EC50: under 50 nM for the first, under 50 nM for the second.

First: CNC(=O)c1ccc(-n2c(=O)c3c(n4ncc(CC5CC(F)(F)C5)c24)CN(C(=O)c2ccc(Br)c(Cl)c2)CC3)cc1 [Compound 19, 4-[12-(4-bromo-3-chloro-benzoyl)-5-[(3,3-difluorocyclobutyl)methyl]-8-oxo-2,3,7,12-tetrazatricyclo[7.4.0.0^2,6]trideca-1(9),3,5-trien-7-yl]-N-methyl-benzamide]
Second: CNc1n[nH]c2cc(-n3c(=O)c4c(n5ncc(CC6CC6)c35)CN(C(=O)c3ccc(Br)c(Cl)c3)CC4)ccc12 [Compound 27, 12-(4-bromo-3-chloro-benzoyl)-5-(cyclopropylmethyl)-7-[3-(methylamino)-1H-indazol-6-yl]-2,3,7,12-tetrazatricyclo[7.4.0.0^2,6]trideca-1(9),3,5-trien-8-one]
The EC50 of the first is higher: 50 to 500 nM for the first, under 50 nM for the second.

`Cn1cnnc1-c1ccc(-n2c(=O)c3c(n4ncc(Cc5ccccc5)c24)CN(C(=O)c2ccc(Br)c(C(F)(F)F)c2)CC3)cc1` [Compound 25, 5-benzyl-12-[4-bromo-3-(trifluoromethyl)benzoyl]-7-[4-(4-methyl-1,2,4-triazol-3-yl)phenyl]-2,3,7,12-tetrazatricyclo[7.4.0.0^2,6]trideca-1(9),3,5-trien-8-one] and `Cc1nnc(-c2ccc(-n3c(=O)c4c(n5ncc(Cc6ccccc6)c35)CN(C(=O)c3ccc(Br)c(C(F)(F)F)c3)CC4)cc2)n1C` [Compound 32, 5-benzyl-12-[4-bromo-3-(trifluoromethyl)benzoyl]-7-[4-(4,5-dimethyl-1,2,4-triazol-3-yl)phenyl]-2,3,7,12-tetrazatricyclo[7.4.0.0^2,6]trideca-1(9),3,5-trien-8-one] cannot be ordered by EC50: under 50 nM for the first, under 50 nM for the second.

`CNc1n[nH]c2cc(-n3c(=O)c4c(n5ncc(Cc6ccccc6)c35)CN(C(=O)c3ccc(Br)c(C(F)(F)F)c3)CC4)ccc12` [Compound 26, 5-benzyl-12-[4-bromo-3-(trifluoromethyl)benzoyl]-7-[3-(methylamino)-1H-indazol-6-yl]-2,3,7,12-tetrazatricyclo[7.4.0.0^2,6]trideca-1(9),3,5-trien-8-one] and `CNc1n[nH]c2cc(-n3c(=O)c4c(n5ncc(CC6CC6)c35)CN(C(=O)c3ccc(Br)c(C(F)(F)F)c3)CC4)ccc12` [Compound 28, 12-[4-bromo-3-(trifluoromethyl)benzoyl]-5-(cyclopropylmethyl)-7-[3-(methylamino)-1H-indazol-6-yl]-2,3,7,12-tetrazatricyclo[7.4.0.0^2,6]trideca-1(9),3,5-trien-8-one] cannot be ordered by EC50: under 50 nM for the first, under 50 nM for the second.

`CNC(=O)c1cc(-n2c(=O)c3c(n4ncc(Cc5ccccc5)c24)CN(C(=O)c2ccc(Br)c(C(F)(F)F)c2)CC3)nn1C` [Compound 29, 5-[5-benzyl-12-[4-bromo-3-(trifluoromethyl)benzoyl]-8-oxo-2,3,7,12-tetrazatricyclo[7.4.0.0^2,6]trideca-1(9),3,5-trien-7-yl]-N,2-dimethyl-pyrazole-3-carboxamide] and `CNc1nnc2cc(-n3c(=O)c4c(n5ncc(Cc6ccccc6)c35)CN(C(=O)c3ccc(Br)c(C(F)(F)F)c3)CC4)ccn12` [Compound 30, 5-benzyl-12-[4-bromo-3-(trifluoromethyl)benzoyl]-7-[3-(methylamino)-[1,2,4]triazolo[4,3-a]pyridin-7-yl]-2,3,7,12-tetrazatricyclo[7.4.0.0^2,6]trideca-1(9),3,5-trien-8-one] cannot be ordered by EC50: under 50 nM for the first, under 50 nM for the second.

`Cc1nnc(-c2ccc(-n3c(=O)c4c(n5ncc(Cc6ccccc6)c35)CN(C(=O)c3ccc(Br)c(Cl)c3)CC4)cc2)n1C` [Compound 31, 5-benzyl-12-(4-bromo-3-chloro-benzoyl)-7-[4-(4,5-dimethyl-1,2,4-triazol-3-yl)phenyl]-2,3,7,12-tetrazatricyclo[7.4.0.0^2,6]trideca-1(9),3,5-trien-8-one] and `Cn1cncc1-c1ccc(-n2c(=O)c3c(n4ncc(Cc5ccccc5)c24)CN(C(=O)c2ccc(Br)c(C(F)(F)F)c2)CC3)cc1` [Compound 33, 5-benzyl-12-[4-bromo-3-(trifluoromethyl)benzoyl]-7-[4-(3-methylimidazol-4-yl)phenyl]-2,3,7,12-tetrazatricyclo[7.4.0.0^2,6]trideca-1(9),3,5-trien-8-one] cannot be ordered by EC50: under 50 nM for the first, under 50 nM for the second.

With `Cc1cnnn1-c1ccc(-n2c(=O)c3c(n4ncc(Cc5ccccc5)c24)CN(C(=O)c2ccc(Br)c(C(F)(F)F)c2)CC3)cc1` [Compound 34, 5-benzyl-12-[4-bromo-3-(trifluoromethyl)benzoyl]-7-[4-(5-methyltriazol-1-yl)phenyl]-2,3,7,12-tetrazatricyclo[7.4.0.0^2,6]trideca-1(9),3,5-trien-8-one] the EC50 was under 50 nM.
